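48-hour exposure; five concentrations; linearly interpolated endpoints. GI50 = concentration required for 50% inhibition of growth. Definition used: TGI = concentration required for complete inhibition of growth.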
Key:
Assay in all cases: growth of human tumour cells (NCI), 48 h
[1] = system: SK-MEL-28 melanoma
[2] = system: HL-60(TB) leukemia
[3] = system: HCT-15 colon
[4] = system: MALME-3M melanoma
[5] = system: CCRF-CEM leukemia
[6] = system: RPMI-8226 leukemia
[7] = system: OVCAR-8 ovarian
[8] = system: A498 renal
[9] = system: UACC-257 melanoma
[10] = system: NCI-H522 lung
[11] = system: SK-MEL-5 melanoma
[12] = system: HOP-92 NSCLC
[13] = system: 786-0 renal
[14] = system: LOX IMVI melanoma
[15] = system: RXF 393 renal
[16] = system: IGROV1 ovarian
[17] = system: HCT-116 colon
[18] = system: U251 CNS
[19] = system: MCF7 breast
[20] = system: SF-539 CNS
[21] = system: PC-3 prostate
[22] = system: SF-295 CNS
[23] = system: MDA-MB-435
[24] = system: SNB-75 CNS
[25] = system: SK-MEL-2 melanoma
[26] = system: SF-268 CNS
[27] = system: K-562 leukemia
[28] = system: NCI-H23 lung
[29] = system: TK-10 renal
[30] = system: SN12C renal
[31] = system: CAKI-1 renal
[32] = system: A549 NSCLC
[33] = system: OVCAR-3 ovarian
[34] = system: SK-OV-3 ovarian
[35] = system: T-47D breast
[36] = system: SNB-19 CNS
[37] = system: NCI-H460 lung
[38] = system: KM12 colon
[39] = system: NCI-H226 lung
[40] = system: OVCAR-4 ovarian
[41] = system: MOLT-4 leukemia
[42] = system: HCC-2998 colon
[43] = system: UO-31 renal
[44] = system: BT-549 breast
[45] = system: M14 melanoma
[46] = system: SW-620 colon
[47] = system: HS 578T breast
[48] = system: MDA-MB-231 breast
[49] = system: UACC-62 melanoma
[50] = system: EKVX NSCLC
[51] = system: SR leukemia
[52] = system: HT29 colon
[53] = system: MDA-MB-468 breast
[54] = system: ACHN renal
[55] = system: DU-145 prostate
[56] = system: COLO 205 colon
[57] = system: HOP-62 NSCLC
[58] = system: OVCAR-5 ovarian

## O=C(/C=C/c1cccc(OCc2ccc(F)cc2)c1)c1nc2ccccc2[nH]1
[1]
  GI50: 21.9 µM
  TGI: 61.2 µM
[2]
  GI50: 19.5 µM
  TGI: 62.4 µM
[3]
  GI50: 13 µM
  TGI: 28.6 µM
[4]
  GI50: 69.4 µM
  TGI: > 100 µM
[5]
  GI50: 10.9 µM
  TGI: > 100 µM
[6]
  GI50: 3.09 µM
  TGI: 10.8 µM
[7]
  GI50: 34.4 µM
  TGI: > 100 µM
[8]
  GI50: > 100 µM
  TGI: > 100 µM
[9]
  GI50: 66.2 µM
  TGI: > 100 µM
[10]
  GI50: 27.5 µM
  TGI: > 100 µM
[11]
  GI50: 31.7 µM
  TGI: > 100 µM
[12]
  GI50: 8.64 µM
  TGI: 67.5 µM
[13]
  GI50: 18.5 µM
  TGI: 45.9 µM
[14]
  GI50: 11.4 µM
  TGI: 25.4 µM
[15]
  GI50: 15 µM
  TGI: 31.2 µM
[16]
  GI50: 21.9 µM
  TGI: 66.6 µM
[17]
  GI50: 11.9 µM
  TGI: 31.4 µM
[18]
  GI50: 13.5 µM
  TGI: 35.7 µM
[19]
  GI50: 4.52 µM
  TGI: 32.5 µM
[20]
  GI50: 17.6 µM
  TGI: 32.2 µM
[21]
  GI50: 27.1 µM
  TGI: > 100 µM
[22]
  GI50: 32.7 µM
  TGI: > 100 µM
[23]
  GI50: 21.2 µM
  TGI: 59.9 µM
[24]
  GI50: 34.2 µM
  TGI: > 100 µM
[25]
  GI50: 81.3 µM
  TGI: > 100 µM
[26]
  GI50: 37.7 µM
  TGI: > 100 µM
[27]
  GI50: 8.34 µM
  TGI: 78.8 µM
[28]
  GI50: 20.5 µM
  TGI: 57.1 µM
[29]
  GI50: 35.1 µM
  TGI: > 100 µM
[30]
  GI50: 62.9 µM
  TGI: > 100 µM
[31]
  GI50: 24.5 µM
  TGI: > 100 µM
[32]
  GI50: 65.1 µM
  TGI: > 100 µM
[33]
  GI50: 13.4 µM
  TGI: 37.6 µM
[34]
  GI50: > 100 µM
  TGI: > 100 µM
[35]
  GI50: 29.2 µM
  TGI: > 100 µM
[36]
  GI50: 25.3 µM
  TGI: > 100 µM
[37]
  GI50: 34.8 µM
  TGI: > 100 µM
[38]
  GI50: 13.5 µM
  TGI: 65.9 µM
[39]
  GI50: 51 µM
  TGI: > 100 µM
[40]
  GI50: 66.5 µM
  TGI: > 100 µM
[41]
  GI50: 21.9 µM
  TGI: > 100 µM
[42]
  GI50: 15.5 µM
  TGI: 30 µM
[43]
  GI50: 13.4 µM
  TGI: 29 µM
[44]
  GI50: 18.4 µM
  TGI: 46.4 µM
[45]
  GI50: 25.5 µM
  TGI: 83.6 µM
[46]
  GI50: 12.2 µM
  TGI: 34.3 µM
[47]
  GI50: 25.9 µM
  TGI: 95.7 µM
[48]
  GI50: 18.4 µM
  TGI: 47.8 µM
[49]
  GI50: 18.7 µM
  TGI: > 100 µM
[50]
  GI50: 41.3 µM
  TGI: > 100 µM
[51]
  GI50: 4.68 µM
  TGI: > 100 µM
[52]
  GI50: 18.4 µM
  TGI: 40.1 µM
[53]
  GI50: 15 µM
  TGI: 32.3 µM
[54]
  GI50: 47 µM
  TGI: > 100 µM
[55]
  GI50: 29.5 µM
  TGI: > 100 µM
[56]
  GI50: 39.8 µM
  TGI: > 100 µM
[57]
  GI50: 41.5 µM
  TGI: > 100 µM
[58]
  GI50: 29.3 µM
  TGI: > 100 µM

Source: PubChem BioAssay (NCI)
